Tests used:
[1] = system: fatty liver model animal induced by high fat diet; assay: Test using fatty liver model animal induced by high fat diet; assay type: in vivo; conditions: high fat diet rats, daily single dose of 60 mg/kg, compared to the vehicle group and the obeticholic acid group
Protocol: As subject animals, 6-week-old rats were purchased. All rats were kept under standard conditions. When the rats became 12 weeks old after being bred for about 6 weeks, test substances were administered to the rats. Test groups were set based on ALT level in blood collected at 5 weeks. For 5 weeks after the rats reached 12 weeks old, test substances were separately administered to a vehicle administration group, an obeticholic acid administration group as a positive control group, and a 3-phenyl-4-normalpropyl-1-(pyridin-2-yl)-1H-pyrazol-5-ol hydrochloride administration group. Blood was collected one day before the start of the experiment (from jugular vein), and blood samples were collected on the 5 weeks, 8 weeks and on the day of the autopsy (24 hours after the fasting, total 4 times). In addition, plasma of each blood sample collected on the 5th week, 8th week and the day of the autopsy were analyzed. After completion of the test, the animals were anesthetized, liver tissues were taken out from respective animals and blood for inspection was collected. The liver tissues were weighed and imaged. The liver tissues were immobilized in 10% buffered neutral formalin. The immobilized tissues were cut to a predetermined thickness, subjected to a general tissue treatment process, embedded in paraffin and produced into tissue sections with a size of 4 to 5 μm, and the tissue sections were subjected to Hematoxylin & Eosin (H&E stain) as a general staining method and were histopatho-logically observed. In addition to H&E staining, Oil red-o staining was conducted in order to observe lipids induced by formation of fatty liver, levels of produced lipids were measured and an effect of drug administration on reduction of lipids was predicted. The liver tissues were stained with an Oil red o working solution, to evaluate levels of produced lipids. Blood was collected and centrifuged at 3000 rpm at 4° C. for 10 min. The serum of the upper layer was taken and the levels of alkaline phosphate (ALP), aspartate transminase (AST) and alanine transaminase (ALT) were measured using an automatic blood biochemical analyzer (AU480, Beckman 30-18 Coulter, USA) and the results were analyzed. A ratio of liver weight to body weight was measured and the amount of triglyceride in liver tissues was measured to expect effects of drug administration on reduction of relative liver weight and triglyceride. The liver tissues were ground with a homogenizer, chloroform and methanol (2:1) were added thereto, the resulting mixture was centrifuged at 3,000 rpm and at 4° C. for 10 minutes and the organic solvent layer containing lipids was separated. The organic solvent in the separated lipid layer was removed in the dryer at 50° C. for 12 hours. […]

[2] = system: fatty liver model animal induced by diabetic db/db mice; assay: Test using fatty liver model animal induced by diabetic db/db mice; assay type: in vivo, diabetic db/db mice (C57BLKS/J-leprdb/leprdb); conditions: daily single dose of 60 mg/kg
Protocol: As subject animals, 6-week-old male diabetic db/db mice (C57BLKS/J-leprdb/leprdb) were purchased from Jackson Laboratory (Bar Harbor, Me., USA). The mice were kept under standard conditions. When the mice became 8 weeks old after being bred for about 2 weeks, test substances were administered to the mice. For 12 weeks after the mice became 8 weeks old, test substances were separately administered to a vehicle administration group and a 3-phenyl-4-normalpropyl-1-(pyridin-2-yl)-1H-pyrazol-5-ol hydrochloride administration group. A normal control group was used as a negative control. After completion of the test, the animals were anesthetized, liver tissues were taken out from respective animals and blood for inspection was collected. The liver tissues were weighed and imaged. The liver tissues were immobilized in 10% buffered neutral formalin. The immobilized tissues were cut to a predetermined thickness, subjected to a general tissue treatment process, embedded in paraffin and produced into tissue sections with a size of 4 to 5 μm, and the tissue sections were subjected to Hematoxylin & Eosin (H&E stain) as a general staining method and were histopatho-logically observed. In addition to H&E staining, Oil red-O staining was conducted in order to observe lipids induced by formation of fatty liver, levels of produced lipids were measured and an effect of drug administration on reduction of lipids was predicted. The liver tissues were stained with an Oil red 0 working solution, to evaluate levels of produced lipids. Blood was collected and centrifuged at 3000 rpm at 4° C. for 10 min. The serum of the upper layer was taken and the levels of triglyceride (TG) and LDL-cholesterol (LDL-C) were measured using an automatic blood biochemical analyzer (AU480, Beckman 30-18 Coulter, USA) and the results were analyzed. A ratio of liver weight to body weight was measured and the amount of triglyceride in liver tissues was measured to expect effects of drug administration on reduction of relative liver weight and triglyceride. The liver tissues were ground with a homogenizer, chloroform and methanol (2:1) were added thereto, the resulting mixture was centrifuged at 3,000 rpm and at 4° C. for 10 minutes and the organic solvent layer containing lipids was separated. The organic solvent in the separated lipid layer was removed in the dryer at 50° C. for 12 hours. The lipid-only tubes were immersed in 100% EtOH, and then suspended in a lipid-free tube and then assayed with a kit reagent for measuring triglyceride (AM157S-K, Asan, Korea).

[3] = system: fatty liver model animal induced by MCD (methionine/choline deficient) diet; assay: Test using fatty liver model animal induced by MCD (methionine/choline deficient) diet; assay type: in vivo, Sprague Dawley (SD) rats; conditions: MCD diet rats, daily single dose of 60 mg/kg, compared to the vehicle group
Protocol: As subject animals, 6-week-old male Sprague Dawley (SD) rats were purchased. All rats were kept under standard conditions. When the rats became 12 weeks old after being bred for about 6 weeks, test substances were administered to the rats. Test groups were set based on ALT level in blood collected at 5 weeks. For 5 weeks after the rats became 12 weeks old, test substances were separately administered to a vehicle administration group and a 3-phenyl-4-n-propyl-1-(pyridin-2-yl)-1H-pyrazol-5-ol hydrochloride administration group. A normal control group was used as a negative control. Blood was collected one day before the start of the experiment (from the jugular vein), and blood samples were collected on the 3 weeks, 5 weeks, 7 weeks, 9 weeks and on the day of the autopsy (24 hours after the fasting, total six times). In addition, plasma of each blood sample collected on the 5 weeks, 7 weeks, 9 weeks and on the day of the autopsy were analyzed. After completion of the test, the animals were anesthetized, liver tissues were taken out from respective animals and blood for inspection was collected. The liver tissues were weighed and imaged. The liver tissues were immobilized in 10% buffered neutral formalin. […] In addition to H&E staining, Oil red-O staining was conducted in order to observe lipids induced by formation of fatty liver, levels of produced lipids were measured and an effect of drug administration on reduction of lipids was predicted. […] The serum of the upper layer was taken and the level of alanine transaminase (ALT) was measured using an automatic blood biochemical analyzer (AU480, Beckman 30-18 Coulter, USA) and the results were analyzed. A ratio of liver weight to body weight was measured and the amount of triglyceride in liver tissues was measured to expect effects of drug administration on reduction of relative liver weight and triglyceride. […] Results are analyzed.

[4] = compared to the vehicle group, FIG. 6C

CCCc1c(-c2ccccc2)nn(-c2ccccn2)c1O.Cl [compound 1, 3-phenyl-4-n-propyl-1-(pyridin-2-yl)-1H-pyrazol-5-ol hydrochloride] was tested, and the relative liver weight ([1]; FIG. 4A) was “significantly reduced”, the “level of ALP in blood” value ([1]; FIG. 4B-4D) was “considerably decreased” and the “level of ALT in blood” value ([1]; FIG. 4B-4D) was “considerably decreased”. The “level of AST in blood” value ([1]; FIG. 4B-4D) was “considerably decreased”, the “level of LDL in blood” value ([2]; FIG. 6A and 6B) was “decreasing levels” and the “level of LDL in liver tissues” value ([2]; FIG. 6A and 6B) was “decreasing levels”. For the same compound, the “level of TG in blood” value ([2]; FIG. 6A and 6B) was “decreasing levels”, the “level of TG in liver tissues” value ([2]; FIG. 6A and 6B) was “decreasing levels” and the “liver tissue damage and hepatic fibrosis (TGF-β and Type IV collagen staining in liver tissues)” value ([2]; compared to the vehicle group, FIG. 5) was “significantly reduced”. For the same compound, the “mRNA expression of MCP-1 in liver tissues” value [2, 4] was “considerably reduced”, the “mRNA expression of PAI-1 in liver tissues” value [2, 4] was “considerably reduced” and the “mRNA expression of TGF-β in liver tissues” value [2, 4] was “considerably reduced”. The “mRNA expression of collagen I in liver tissues” value [2, 4] was “considerably reduced”, the “mRNA expression of collagen IV in liver tissues” value [2, 4] was “considerably reduced” and the “level of ALT in the blood” value ([3]; FIG. 1) was “significantly reduced”. The “inflammation in liver tissues (staining of α-SMA, IL-1β and TNF-α)” value ([3]; FIG. 2) was “considerably reduced” and the “liver tissue damage and hepatic fibrosis (TGF-β, H&E staining, Oil red O staining)” value ([3]; FIG. 3) was “reduced”.

From patent publication US10966969B2, “Therapeutic agent for liver diseases” (APTABIO THERAPEUTICS INC., priority 2017, dated 2021)
